Test results reported in patent publication US6376521B1, “A3 adenosine receptor antagonists” (The United States of America as represented by the …, priority 1998, dated 2002).
Where two headings read alike, the source gives them in different places.

Columns and labels:
[1] = biological target: T1, A2A adenosine receptors (Rattus norvegicus, UniProt P30543); conditions: Table 3, cited from earlier work; for Ki: compounds 59, 68, values taken from van Rhee et al. 1996 and Jiang et al. 1997, read-out: rA2A Ki ± S.E.M.
T1 construct: from tissue
T1 sequence (P30543 whole entry): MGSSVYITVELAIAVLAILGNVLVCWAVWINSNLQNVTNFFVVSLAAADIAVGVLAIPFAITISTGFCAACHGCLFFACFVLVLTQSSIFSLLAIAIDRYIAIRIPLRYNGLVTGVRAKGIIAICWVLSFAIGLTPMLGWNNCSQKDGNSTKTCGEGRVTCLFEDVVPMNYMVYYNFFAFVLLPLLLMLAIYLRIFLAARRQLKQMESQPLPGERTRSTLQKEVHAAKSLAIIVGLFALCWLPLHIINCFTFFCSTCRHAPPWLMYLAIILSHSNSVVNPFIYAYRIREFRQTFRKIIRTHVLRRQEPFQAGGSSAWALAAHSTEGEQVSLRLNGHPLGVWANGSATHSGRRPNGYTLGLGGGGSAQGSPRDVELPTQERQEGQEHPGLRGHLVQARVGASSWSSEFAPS

[2] = biological target: T2, human A3 receptors (Homo sapiens, UniProt P0DMS8); assay: Displacement of specific [125I]AB-MECA binding at human A3 receptors expressed in HEK cells, in membranes; conditions: for Ki: [125I]AB-MECA, HEK cell membranes, n = 3-4, read-out: hA3 Ki ± S.E.M.; for rA1/hA3: ratio of affinities rat A1 vs human A3
T2 construct: expressed in transfected cells
T2 sequence (P0DMS8 1-318): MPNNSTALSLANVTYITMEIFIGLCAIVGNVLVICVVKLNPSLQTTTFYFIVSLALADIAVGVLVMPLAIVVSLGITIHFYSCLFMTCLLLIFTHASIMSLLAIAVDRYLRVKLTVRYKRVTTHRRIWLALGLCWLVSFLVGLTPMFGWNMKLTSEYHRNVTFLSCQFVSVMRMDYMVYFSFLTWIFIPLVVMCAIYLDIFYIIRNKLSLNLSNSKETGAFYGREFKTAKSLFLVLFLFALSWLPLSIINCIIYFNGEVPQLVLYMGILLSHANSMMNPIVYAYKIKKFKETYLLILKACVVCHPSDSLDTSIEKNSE

[3] = biological target: T3, rat A3 receptors (Rattus norvegicus, UniProt P28647); assay: Displacement of specific [125I]AB-MECA binding at rat A3 receptors stably expressed in CHO cells; conditions: Table 4; for Ki: [125I]AB-MECA, CHO cells, n = 3-5, read-out: rA3 Ki; for rA3/hA3: ratio of affinities at rat vs. human A3 receptors; for rA1/rA3: ratio of affinities rat A1 vs rat A3
T3 construct: expressed in transfected cells
T3 sequence (P28647 1-320): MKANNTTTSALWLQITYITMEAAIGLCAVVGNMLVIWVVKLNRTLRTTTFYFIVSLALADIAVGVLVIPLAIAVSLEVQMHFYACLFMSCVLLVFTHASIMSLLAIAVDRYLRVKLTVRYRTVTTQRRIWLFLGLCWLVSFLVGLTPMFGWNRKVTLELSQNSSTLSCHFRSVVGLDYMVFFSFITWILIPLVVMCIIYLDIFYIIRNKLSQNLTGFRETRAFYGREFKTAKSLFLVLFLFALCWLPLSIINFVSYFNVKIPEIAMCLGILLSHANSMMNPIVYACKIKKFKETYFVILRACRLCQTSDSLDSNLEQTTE

[4] = biological target: T1, A2A adenosine receptors; assay: Displacement of specific [3H]CGS 21680 binding in rat striatal membranes; conditions: [3H]CGS 21680, rat striatal membranes, n = 3-6, read-out: rA2A Ki ± S.E.M.
[5] = biological target: T4, A1 adenosine receptors (Rattus norvegicus, UniProt P25099); assay: Displacement of specific [3H]R-PIA binding in rat brain membranes; conditions: for Ki: Table 2, compounds 33-58, [3H]R-PIA, rat brain membranes, n = 3-5, read-out: rA1 Ki ± S.E.M.; for rA1 percentage of specific binding displaced: Table 2
T4 construct: from tissue
T4 sequence (P25099 1-326): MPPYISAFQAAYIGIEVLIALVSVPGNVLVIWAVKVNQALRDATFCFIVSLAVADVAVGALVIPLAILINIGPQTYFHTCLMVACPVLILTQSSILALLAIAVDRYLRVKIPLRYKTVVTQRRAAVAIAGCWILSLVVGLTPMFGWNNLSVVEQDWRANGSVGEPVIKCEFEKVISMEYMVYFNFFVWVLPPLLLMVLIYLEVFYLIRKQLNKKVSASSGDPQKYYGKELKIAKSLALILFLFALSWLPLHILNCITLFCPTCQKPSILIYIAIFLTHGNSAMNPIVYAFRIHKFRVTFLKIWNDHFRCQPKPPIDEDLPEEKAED

| Ki ([2]; Table 2, compounds 33-58) [µM] | rA1/hA3 ([2]; Table 2) | Ki [3] [µM] | rA3/hA3 [3] | rA1/rA3 [3] | Ki ([4]; Table 2, compounds 33-58) [µM] | Compound | other results |
| --- | --- | --- | --- | --- | --- | --- | --- |
| – | – | – | – | – | – | CCOC(=O)C1=C(C)NC(c2ccccc2)=C(C(=O)OCC)C1C (centres unmarked) [Compound 59] | Ki [1]: 35.9 ± 15.3 µM |
| – | – | – | – | – | – | CCOC(=O)C1=C(C)NC(c2ccccc2)=C(C(=O)OCC)C1C=Cc1ccccc1 (centres unmarked) [Compound 68] | Ki [1]: 4.77 ± 0.29 µM |
| 4.01 ± 2.49 | 14 | 2.8 ± 0.22 | 0.83 | >20 | 26.1 ± 6.2 | CCOC(=O)c1c(C2CCCC2)nc(CC)c(C(=O)SCC)c1CC [Compound 52, 5-Ethyl 2,4-diethyl-3-(ethylsulfanylcarbonyl)-6-cyclopentylpyridine-5-carboxylate] | Ki [5]: 55.3 ± 14.7 µM |
| 0.02 ± 0.0019 | >3000 | 0.41 ± 0.048 | 21 | >100 | 6.13 ± 1.28 | CCOC(=O)c1c(-c2ccccc2)nc(CC)c(C(=O)SCC)c1CC [Compound 48, 5-Ethyl 2,4-diethyl-3-(ethylsulfanylcarbonyl)-6-phenylpyridine-5-carboxylate] | rA1 percentage of specific binding displaced ([5]; at 10^−4 M): 41 ± 6% (10^−4) |
| 0.194 ± 0.051 | >700 | 0.65 ± 0.07 | 3.4 | >100 | 7.53 ± 2.7 | CCCc1c(C(=O)SCC)c(C)nc(-c2ccccc2)c1C(=O)OCC [Compound 38, 5-Ethyl-2-methyl-4-propyl-3-(ethylsulfanylcarbonyl)-6-phenylpyridine-5-carboxylate] | rA1 percentage of specific binding displaced ([5]; at 10^−4 M): 29 ± 6% (10^−4) |
| – | – | 2.8 ± 0.28 | 1.7 | >20 | – | CCSC(=O)C1=C(C)NC(c2ccccc2)=C(C(=O)OCc2ccccc2)C1CC (racemic) [Compound 65, 5-Benzyl 2-methyl-4ethyl-6-phenyl-3-(ethylsulfanylcarbonyl)-1,4-(±)-dihydropyridine-5-carboxylate] | Ki ([2]; Table 3): 1.65 ± 0.4 µM; rA1/hA3 ([2]; Table 3): >50; Ki ([4]; Table 3): 14.3 ± 4.2 µM; inhibition at 100 µM ([5]; Table 3, at 10^−4 M, read-out: rA1 % inhibition (percentage of specific binding displaced)): 45 ± 2% |
| – | – | – | – | – | – | CCOC(=O)C1=C(C)NC(c2ccccc2)=C(C(=O)OCc2ccccc2)C1C#Cc1ccccc1 (centres unmarked) [Compound 69] | rA2A displacement of specific binding (class d) ([1]; at 10^−4 M, compound 69, value taken from the literature): d (10^−4) (Displacement of < 10% of specific binding at the indicated concentration (M).) |

| Compound | Ki ([2]; Table 2, compounds 33-58) [µM] | rA1/hA3 ([2]; Table 2) | Ki [3] [µM] | rA3/hA3 [3] | rA1/rA3 [3] | Ki ([4]; Table 2, compounds 33-58) [µM] | other results |
| --- | --- | --- | --- | --- | --- | --- | --- |
| CCSC(=O)c1c(CC)nc(-c2ccccc2)c(C(=O)OCCO)c1CC [Compound 50, 5-Hydroxylethyl 2,4-diethyl-3-(ethylsulfanylcarbonyl)-6-phenylpyridine-5-carboxylate] | 0.188 ± 0.061 | 93 | 2.87 ± 0.48 | 15 | 6.1 | 10 ± 3 | Ki [5]: 17.4 ± 5.29 µM |
